Reference: US20150297482A1, “MALODOR COUNTERACTING COMPOSITIONS AND METHOD FOR THEIR USE TO COUNTERACT SWEAT MALODOR” (FIRMENICH SA, priority 2009, published 2015)
Counter-ions that a name gives are not always drawn. Like-named read-outs stand apart in the source and are kept apart here.

System: Staphylococcus haemolyticus CNCM I-4170
Experiment: Protocol A: in-vitro malodor inhibition (free thiol groups from Cys-Gly precursor, DTNB absorbance at 412 nm)
Assay type: cell-based
Description: Further details of such a screening and % inhibition measurement and definition are described further on in this application. The precursor used, which may also be in the form of a human sweat sample, typically generates malodorant sulfur compounds when acted upon by the Staphylococcus haemolyticus cells, or by a β-lyase present in such cells. The malodor inhibition coefficient, as defined herein, reflects the % of reduction in free SH groups generated in the above-mentioned medium by the enzymatic activity of the bacterial cells when in presence of the MOC ingredient or MOC composition in question, as compared to the same measurement in their absence. […] Alternatively, the bacterial cells can be replaced by a β-lyase present in said cells. […] Detection of enzymatic activity inhibition is measured via the sulfur groups, namely thiol groups, freed from the precursor bacterial transformation, by comparison with the reference experiment in the absence of the respective MOC ingredient, said sulfur groups being detected by interaction with DTNB, a known chemical detector system for thiols. The reaction can be monitored by absorbance reading at 412 nm. The procedure can be performed indifferently with either a purified or semi-purified enzyme or intact bacterial cells, as in the case described here. Malodor inhibition coefficient is measured as a function of the percentage of free thiol groups in the medium, over time, by an absorbance method, and reflects the reduction in malodor obtained in the presence of the MOC ingredients and compositions. […] At the end of the growth phase, the bacterial cells were harvested by centrifugation at 5000 rpm for 15 min. The cell pellet was then washed with 0.1 volumes of sterile potassium phosphate buffer 0.1 M, pH 7.5. […] The precursor was used at 0.17 mM final concentration. • Detection reagent DTNB • DTNB (5,5′-Dithio-bis-(2-nitrobenzoic acid; […]

[1] = Table 2, 0.0012 w/v % in medium
[2] = Table 2, 0.0025 w/v % in medium
[3] = Table 2, 0.0125 w/v % in medium
[4] = Staphylococcus haemolyticus, CNCMI4170, 0.0012 w/v % in medium, read-out: Ingredient Malodor Inhibition Value (%)
[5] = Staphylococcus haemolyticus, CNCMI4170, 0.0025 w/v % in medium, read-out: Ingredient Malodor Inhibition Value (%)
[6] = Staphylococcus haemolyticus, CNCMI4170, 0.006 w/v % in medium, read-out: Ingredient Malodor Inhibition Value (%)
[7] = Staphylococcus haemolyticus, CNCMI4170, 0.0125 w/v % in medium, read-out: Ingredient Malodor Inhibition Value (%)
[8] = Staphylococcus haemolyticus, CNCMI4170, 0.025 w/v % in medium, read-out: Ingredient Malodor Inhibition Value (%)
[9] = Staphylococcus haemolyticus, CNCMI4170, 0.05 w/v % in medium, read-out: Ingredient Malodor Inhibition Value (%)
[10] = Staphylococcus haemolyticus, CNCMI4170, Table 2, 0.0012 w/v % in medium, read-out: Ingredient Malodor Inhibition Value (%)
[11] = Staphylococcus haemolyticus, CNCMI4170, Table 2, 0.0025 w/v % in medium, read-out: Ingredient Malodor Inhibition Value (%)
[12] = Staphylococcus haemolyticus, CNCMI4170, Table 2, 0.005 w/v % in medium, read-out: Ingredient Malodor Inhibition Value (%)
[13] = Staphylococcus haemolyticus, CNCMI4170, Table 2, 0.0125 w/v % in medium, read-out: Ingredient Malodor Inhibition Value (%)
[14] = Staphylococcus haemolyticus, CNCMI4170, Table 2, 0.025 w/v % in medium, read-out: Ingredient Malodor Inhibition Value (%)
[15] = Staphylococcus haemolyticus, CNCMI4170, Table 2, 0.05 w/v % in medium, read-out: Ingredient Malodor Inhibition Value (%)

SMILES: C[C@H]1[C@@H]2CC(C[C@@]13C=CC(=O)CC3)C2(C)C (single isomer, unassigned; (+))
- Ingredient Malodor Inhibition Value (%) (0.0012 w/v % in medium): 0.00%
- Ingredient Malodor Inhibition Value (%) (0.0025 w/v % in medium): 14.02%
- Ingredient Malodor Inhibition Value (%) (0.006 w/v % in medium): 26.00%
- Ingredient Malodor Inhibition Value (%) (0.0125 w/v % in medium): 72.64%
- Ingredient Malodor Inhibition Value (%) (0.025 w/v % in medium): 75.94%
- Ingredient Malodor Inhibition Value (%) (0.05 w/v % in medium): 75.68%

SMILES: CC1=CC[C@H](C(C)CC=O)CC1 (single isomer, unassigned; (+)) [(+)-(4R)-1-P-Menthene-9-carbaldehyde]
- Ingredient Malodor Inhibition Value (%) [1]: 0.00%
- Ingredient Malodor Inhibition Value (%) [2]: 3.44%
- Ingredient Malodor Inhibition Value (%) (Table 2, 0.005 w/v % in medium): 34.61%
- Ingredient Malodor Inhibition Value (%) [3]: 81.68%
- Ingredient Malodor Inhibition Value (%) (Table 2, 0.025 w/v % in medium): 97.82%

SMILES: CC1=CC[C@H](/C=C/C(C)(C)C(C)O)C1(C)C (single isomer, unassigned; (-)) [(-)-(1′R,E)-3,3-Dimethyl-5-(2′,2′,3′-trimethyl-3′-cyclopenten-1′-yl)-4-penten-2-ol]
- Ingredient Malodor Inhibition Value (%) (0.0012 w/v % in medium): 0.00%
- Ingredient Malodor Inhibition Value (%) (0.0025 w/v % in medium): 27.39%
- Ingredient Malodor Inhibition Value (%) (0.006 w/v % in medium): 75.11%
- Ingredient Malodor Inhibition Value (%) (0.0125 w/v % in medium): 76.95%
- Ingredient Malodor Inhibition Value (%) (0.025 w/v % in medium): 76.65%

SMILES: O=C1CCCCCCCCCCC(=O)OCCO1 [1,4-Dioxacyclohexadecane-5,16-dione]
- inhibition at 0.0012 % [4]: 0%
- inhibition at 0.0025 % [5]: 0%
- inhibition at 0.006 % [6]: 0%
- inhibition at 0.0125 % [7]: 28.2%
- inhibition at 0.025 % [8]: 37.3%
- inhibition at 0.05 % [9]: 36.5%

SMILES: CCCCCCCCCCC=CC=O [2-Tridecenal (ethyl citrate solution), 2-Tridecenal]
- inhibition at 0.0012 % [10]: 29%
- inhibition at 0.0025 % [11]: 40.2%
- inhibition at 0.005 % [12]: 50%
- inhibition at 0.0125 % [13]: 81%

SMILES: CC(CCO)CC(C)(C)C (stereo not shown) [3,5,5-Trimethyl-1-hexanol]
- inhibition at 0.0012 % [4]: 0%
- inhibition at 0.0025 % [5]: 0%
- inhibition at 0.006 % [6]: 0%
- inhibition at 0.0125 % [7]: 0%
- inhibition at 0.025 % [8]: 35%
- inhibition at 0.05 % [9]: 58.3%
- inhibition at 0.1 % (Staphylococcus haemolyticus, CNCMI4170, 0.1 w/v % in medium, read-out: Ingredient Malodor Inhibition Value (%)): 62.9%

SMILES: CC(C)CCCC(C)CC=O (stereo not shown) [3,7-Dimethyloctanal]
- inhibition at 0.0012 % [10]: 0%
- inhibition at 0.0025 % [11]: 0%
- inhibition at 0.005 % [12]: 18.1%
- inhibition at 0.0125 % [13]: 66.7%

SMILES: CC(C)c1cccc(C(C)CC=O)c1 (stereo not shown) [3-(3-Isopropyl-1-phenyl)butanal]
- Ingredient Malodor Inhibition Value (%) [1]: 16.63%
- Ingredient Malodor Inhibition Value (%) [2]: 30.10%
- Ingredient Malodor Inhibition Value (%) (Table 2, 0.005 w/v % in medium): 73.81%
- Ingredient Malodor Inhibition Value (%) [3]: 95.51%
- Ingredient Malodor Inhibition Value (%) (Table 2, 0.025 w/v % in medium): 99.45%
- Ingredient Malodor Inhibition Value (%) (Table 2, 0.05 w/v % in medium): 97.34%

SMILES: CC1(C)C2CC=C(CCC=O)C1C2 (stereo not shown) [3-(6,6-Dimethyl-bicyclo[3.1.1]hept-2-en-2-yl)propanal]
- inhibition at 0.0012 % [10]: 0%
- inhibition at 0.0025 % [11]: 4.58%
- inhibition at 0.005 % [12]: 82.9%
- inhibition at 0.0125 % [13]: 96.7%
- inhibition at 0.025 % [14]: 100%
- inhibition at 0.05 % [15]: 96.3%

SMILES: c1nc2c(o1)CCCCCCCCCC2 [4,5,6,7,8,9,10,11,12,13-Decahydrocyclododeca-1,3-oxazole]
- inhibition at 0.0012 % [10]: 0%
- inhibition at 0.0025 % [11]: 0%
- inhibition at 0.005 % [12]: 52.2%

SMILES: CC(C)(C)C1CCC(O)CC1 (stereo not shown) [4-tert-Butyl-1-cyclohexanol]
- inhibition at 0.0012 % [4]: 0%
- inhibition at 0.0025 % [5]: 0%
- inhibition at 0.006 % [6]: 0%
- inhibition at 0.0125 % [7]: 0%
- inhibition at 0.025 % [8]: 59.8%
- inhibition at 0.05 % [9]: 89.1%

SMILES: CC1=CC2CC(C=O)C1CC2C(C)C (stereo not shown) [8-Isopropyl-6-methyl-bicyclo[2.2.2]oct-5-ene-2-carbaldehyde]
- inhibition at 0.0012 % [10]: 18.9%
- inhibition at 0.0025 % [11]: 28.3%
- inhibition at 0.005 % [12]: 76.9%
- inhibition at 0.0125 % [13]: 84.5%
- inhibition at 0.025 % [14]: 82.9%
- inhibition at 0.05 % [15]: 88.2%

SMILES: CC=CCCCCCCCC=O [9-Undecenal]
- inhibition at 0.0012 % [10]: 0%
- inhibition at 0.0025 % [11]: 0%
- inhibition at 0.005 % [12]: 62.4%
- inhibition at 0.0125 % [13]: 89%
- inhibition at 0.025 % [14]: 81.8%
- inhibition at 0.05 % [15]: 77.9%
